Measured values published in US9290464B2 (priority 2010, dated 2016).

Experiments:
[1] = system: MAO-B-deficient human neuroblastoma SH-SY5Y cells; test: Apoptosis induced by serum starvation in neuroblastoma cells; format: cell-based; conditions: serum-free medium, FIG. 9
Experimental: In this embodiment, MAO-B-deficient human neuroblastoma SH-SY5Y cells (Korean Cell Line Bank) were used. Apoptosis of the human neuroblastoma cells was induced by serum starvation. The MAO-B-deficient human neuroblastoma SH-SY5Y cells cultured in a normal medium were distributed into a 6-well plate at a concentration of 1.8×10^5 cells/well and incubated for 1 day, the medium was exchanged with a serum-free medium containing CBI (0.1, 1 and 10), a serum-free medium containing rasagiline (0.1, 1 and 10), or a serum-free medium containing neither CBI or rasagiline, and the cell was further incubated in 5% CO2 at 37° C. for 48 hours.

[2] = system: catalase, superoxide dismutase (SOD) and glutathione peroxidase (GPx); test: Activities of antioxidative enzymes in MPP+-treated cells; format: cell-based, human; conditions: 2 mM MPP+, 24 hours; FIG. 21
Experimental: In this embodiment, MAO-B-deficient human neuroblastoma SH-SY5Y cells (Korean Cell Line Bank) were used. The SH-SY5Y cells were distributed into a 6-well plate at a concentration of 1.8×10^5 cells/well, and then incubated with 5% of CO2 at 37° C. for 24 hours. The resulting cells were divided into three groups, 2 mM of MPP^+ was added to each group, two of the three groups were respectively treated 0.1, and the resultant was further incubated with 5% of CO2 at 37° C. for 24 hours. The control group which was not treated with MPP^+ was incubated under the same conditions as described above. Subsequently, cell extracts were obtained from the cells, and thus the activities of antioxidative enzymes, i.e., catalase, superoxide dismutase (SOD) and glutathione peroxidase (GPx) were measured.

MPTP-induced mouse = test: Concentration of dopamine in striatum of MPTP-induced mouse (HPLC); format: in vivo, C57BL/6 mice; conditions: 1 mg/kg oral once a day, FIG. 4
Experimental: 7 days after the compounds described above are respectively administered to the three groups, the mice in each group were sacrificed by cervical dislocation and brain tissues were immediately taken out of the mice. Striatum was collected from the brain tissue, 0.5 ml of a HPLC assay diluent (0.1 M HClO4, 0.1 mM EDTA) was added to the striatum, and a tissue homogenate was then prepared using an ultrasonic processor. The homogenate was centrifuged at 12,000 rpm for 15 minutes, and the supernatant was filtered with a nitrocellulose filter (0.2 um, Millipore). For HPLC analysis, HR-80 column (80 mm×4.6 mm, particle size: 3 μm ESA, USA) was used, the flow rate of a mobile phase (0.07 M monobasic sodium phosphate, 1 mM sodium octasulfonic acid, 0.1 uM EDTA, 5% acetonitrile, pH 3.2) was maintained at 0.7 ml/min, and the electrode potential of an electrochemical detector (Coulochem III, ESA, USA) was at E1=−100 mV, E2=350 mV.

malonate-induced mouse = test: Striatum damage in malonate-induced mouse (TTC staining); format: in vivo, ICR mice; conditions: 5 mg/kg i.p., five times; TTC staining 3 days after malonate; FIGS. 7 and 8
Experimental: 5 ml/kg of equithesin was administered to each mouse via intraperitoneal injection to be anesthetized, two levelers of a stereotactic instrument were set at 0 mm from both external auditory canals, and the skull of the mouse was perforated in the stereotactic instrument. 0.2 mg/ml of ascorbic acid was used as a control, and 2.4 umole/2 of malonate was injected into a lesion group and a compound treatment group 0.5 mm forward (AP) and 1.2 mm sideward from striatum on the right side (bregma) and 3.1 mm downward from dura matter by using a Hamilton syringe (10 μl, 26G needle) at a rate of 1 uL/min. The groups administered with malonate were divided into two groups, and 0.5 ml/kg of excipient (n=12) and 5 mg/kg of CBI (n=14) were respectively administered to the two groups via intraperitoneal injection 2 hours before an operation and administered again 1 hour, 1 day, 2 days and 3 days after the operation, i.e., total five times. Malonate was injected into striatum of the mouse, the mouse was sacrificed after 3 days, and the brain was taken out of the mouse to prepare a section. Thereafter, the section was stained with 2,3,5-triphenyltetrazolium chloride (TTC).

NC(=O)OCc1cc(-c2ccc(OCc3ccccc3)cc2)no1 [CBI, carbamic acid 3-(4-benzyloxy-phenyl)-isoxazole-5-yl methylester]
higher extent of a decrease in the apoptosis of neurons than with 10 of rasagiline ([1]; 10 (unit not given), 48 hours): about 33%
extent of the apoptosis of neurons ([1]; 48 hours, 0.1, 1 and 10 (unit not given)): decreased
activity of the antioxidative enzymes decreased by MPP+ [2]: an increase in a decreased activity of the antioxidative enzymes
restoration of the concentration of dopamine in striatum compared with normal mice (MPTP-induced mouse): about 70%
damaged regions of the striatum induced by malonate (malonate-induced mouse): significantly reducing damaged regions of the striatum
